Reference: ChEMBL document CHEMBL6109116, “Peripherally Restricted Fused Heterocyclic Peptidomimetic Multifunctional Opioid Agonists as Novel, Potent Analgesics” (ACS Med Chem Lett, 2025)
The source made the active and inactive calls. The calls are words filed in the database; no cut-off is given here.

Assays:
[1] = target: Kappa-type opioid receptor (Cavia porcellus, UniProt P41144); assay: Displacement of [3H]U69593 from guinea pig KOR assessed as inhibition constant incubated for 2 hrs by Wallac Betaplate liquid scintillation counting analysis
Kappa-type opioid receptor, sequence (P41144 whole entry): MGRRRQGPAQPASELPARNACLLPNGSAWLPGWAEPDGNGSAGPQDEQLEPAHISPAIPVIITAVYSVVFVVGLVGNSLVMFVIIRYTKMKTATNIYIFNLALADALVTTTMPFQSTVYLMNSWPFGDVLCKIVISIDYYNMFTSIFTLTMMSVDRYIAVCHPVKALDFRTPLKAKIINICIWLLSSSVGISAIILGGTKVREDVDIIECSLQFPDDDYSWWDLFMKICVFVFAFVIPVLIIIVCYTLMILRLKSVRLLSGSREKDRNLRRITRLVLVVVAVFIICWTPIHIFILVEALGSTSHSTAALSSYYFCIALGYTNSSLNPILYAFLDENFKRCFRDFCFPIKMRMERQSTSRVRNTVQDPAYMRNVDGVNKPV

[2] = target: Delta-type opioid receptor (Rattus norvegicus, UniProt P33533); assay: Displacement of [3H]-DPDPE from rat cortical membrane DOR assessed as inhibition constant incubated for 2.5 hrs by Wallac Betaplate liquid scintillation counting analysis; format: cell membranes, Cortex
Delta-type opioid receptor, sequence (P33533 whole entry): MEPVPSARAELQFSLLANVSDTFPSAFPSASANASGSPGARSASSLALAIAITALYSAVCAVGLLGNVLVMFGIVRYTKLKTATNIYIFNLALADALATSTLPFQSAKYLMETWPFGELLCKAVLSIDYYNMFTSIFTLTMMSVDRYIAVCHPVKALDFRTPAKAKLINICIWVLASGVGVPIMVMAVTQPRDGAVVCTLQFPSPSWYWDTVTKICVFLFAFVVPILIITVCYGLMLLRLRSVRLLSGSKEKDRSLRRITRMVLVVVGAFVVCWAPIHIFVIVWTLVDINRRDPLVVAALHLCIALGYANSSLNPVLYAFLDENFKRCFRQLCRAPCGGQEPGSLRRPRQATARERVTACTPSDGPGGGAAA

[3] = target: Mu-type opioid receptor (Rattus norvegicus, UniProt P33535); assay: Displacement of [3H]-DAMGO from rat cortical membrane MOR assessed as inhibition constant incubated for 2 hrs by Wallac Betaplate liquid scintillation counting analysis; format: cell membranes, Cortex
Mu-type opioid receptor, sequence (P33535 whole entry): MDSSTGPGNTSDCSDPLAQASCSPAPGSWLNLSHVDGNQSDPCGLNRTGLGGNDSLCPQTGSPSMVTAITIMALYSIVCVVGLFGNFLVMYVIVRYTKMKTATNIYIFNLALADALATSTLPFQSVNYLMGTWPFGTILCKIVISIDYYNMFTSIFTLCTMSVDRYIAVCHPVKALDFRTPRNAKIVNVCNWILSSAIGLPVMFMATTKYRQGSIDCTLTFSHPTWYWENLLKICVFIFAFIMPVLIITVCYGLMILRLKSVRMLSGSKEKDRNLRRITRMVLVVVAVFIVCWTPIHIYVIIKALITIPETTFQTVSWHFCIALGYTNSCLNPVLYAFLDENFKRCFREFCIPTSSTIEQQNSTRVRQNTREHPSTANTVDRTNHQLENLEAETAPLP

[4] = system: Mus musculus; assay: Antinociceptive activity in male C57BL/6J mouse preadministered with compound for 10 mins followed by acetic acid administration and measured after 15 to 30 min by Acetic acid stretching assay (AcAS); format: functional; conditions: time 25-40 min
[5] = Selectivity ratio of ED50 for antinociceptive activity in male C57BL/6J mouse at 10 mg/kg, ip measured after 10 min by 55 degreeC warm-water tail-withdrawal assay to ED50 for antinociceptive activity in male C57BL/6J mouse preadministered with compound for 10 mins followed by acetic acid administration and measured after 15 to 30 min by Acetic acid stretching assay (AcAS); format: functional
[6] = species on record: Mus musculus; assay: Acute antinociceptive activity in male C57BL/6J mouse measured after 30 min by 55 degreeC warm-water tail-withdrawal assay; conditions: 0.5 h
[7] = Toxicity in C57BL/6J mouse assessed as increase in ambulation at 15 mg/kg, ip measured up to 120 min; format: organism-based; conditions: in vivo, 2 h
[8] = system: Mus musculus; assay: Antinociceptive activity in male C57BL/6J mouse assessed as peripheral restriction at 15 mg/kg, ip by 55 degreeC warm-water tail-withdrawal assay; format: functional
[9] = system: Mus musculus; assay: Antinociceptive activity in wild type male C57BL/6J mouse model at 10 nmol, ICV preadministered with naltrindole for 20 mins followed by compound administration for 10 mins; format: functional, organism-based
[10] = system: Mus musculus; assay: Antinociceptive activity in male C57BL/6J mouse at 10 nmol, ICV administered for 8 hrs by 55 degreeC warm-water tail-withdrawal assay; format: functional, organism-based
[11] = system: Mus musculus; assay: Antinociceptive activity in MOR knockout male C57BL/6J mouse model at 10 nmol, ICV administered for 10 mins by 55 degreeC warm-water tail-withdrawal assay; format: functional, organism-based
[12] = Toxicity in C57BL/6J mouse assessed as effect on locomotor activity at 15 mg/kg, ip measured up to 120 min; format: organism-based; conditions: in vivo, 2 h
[13] = system: Mus musculus; assay: Antinociceptive activity in male C57BL/6J mouse at 15 mg/kg, po by 55 degreeC warm-water tail-withdrawal assay; format: functional, organism-based; conditions: time <= 60.0 min
[14] = species on record: Mus musculus; assay: Antinociceptive activity in male C57BL/6J mouse measured after 10 min by 55 degreeC warm-water tail-withdrawal assay; format: functional
[15] = system: Mus musculus; assay: Antinociceptive activity in male C57BL/6J mouse assessed as peripheral restriction at 15 mg/kg, ip pre-treated with naloxone methiodide at 30 mg/kg, SC for 30 min by 55 degreeC warm-water tail-withdrawal assay; format: functional
[16] = system: Mus musculus; assay: Antinociceptive activity in KOR knockout male C57BL/6J mouse model at 10 nmol, ICV administered for 10 mins by 55 degreeC warm-water tail-withdrawal assay; format: functional, organism-based
[17] = system: Mus musculus; assay: Antinociceptive activity in male C57BL/6J mouse assessed as peripheral restriction at 15 mg/kg, ip pre-treated with naloxone methiodide at 30 nmol, ICV for 30 min by 55 degreeC warm-water tail-withdrawal assay; format: functional
[18] = target: Mu-type opioid receptor (Rattus norvegicus) (UniProt P33535); assay: Partial agonist activity at rat MOR extracted from CHO cell membrane assessed as stimulation of [35S]GTPgammaS binding at 1 to 10 uM incubated for 60 mins by liquid scintillation counting assay; format: functional, cell membranes; conditions: dose 1-10 µM
Mu-type opioid receptor (Rattus norvegicus), sequence (P33535 whole entry): as above

[19] = Toxicity in C57BL/6J mouse assessed as respiratory depression at 15 mg/kg, ip measured after 20 mins; format: organism-based; conditions: in vivo
[20] = target: Delta-type opioid receptor (Mus musculus) (UniProt P32300); assay: Partial agonist activity at mouse DOR extracted from CHO cell membrane assessed as stimulation of [35S]GTPgammaS binding at 1 to 10 uM incubated for 60 mins by liquid scintillation counting assay; format: functional, cell membranes; conditions: filed as partial agonist, dose 1-10 µM
Delta-type opioid receptor (Mus musculus), sequence (P32300 whole entry): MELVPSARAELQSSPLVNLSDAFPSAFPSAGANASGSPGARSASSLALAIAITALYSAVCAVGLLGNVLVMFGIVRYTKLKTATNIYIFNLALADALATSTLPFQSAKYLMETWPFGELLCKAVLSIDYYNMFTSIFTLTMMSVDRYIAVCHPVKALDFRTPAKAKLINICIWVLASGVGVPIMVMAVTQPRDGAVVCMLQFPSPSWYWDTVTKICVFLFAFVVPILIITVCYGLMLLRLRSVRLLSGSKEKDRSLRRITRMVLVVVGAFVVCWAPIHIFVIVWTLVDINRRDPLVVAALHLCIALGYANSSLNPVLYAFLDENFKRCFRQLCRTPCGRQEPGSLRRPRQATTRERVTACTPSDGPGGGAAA

[21] = target: Mu-type opioid receptor (Rattus norvegicus) (UniProt P33535); assay: Partial agonist activity at rat MOR extracted from CHO cell membrane assessed as stimulation of [35S]GTPgammaS binding at 10 uM incubated for 60 mins by liquid scintillation counting assay; format: functional, cell membranes; conditions: filed as partial agonist
[22] = target: Kappa-type opioid receptor (Homo sapiens) (UniProt P41145); assay: Partial agonist activity at human KOR extracted from CHO cell membrane assessed as stimulation of [35S]GTPgammaS binding at 1 to 10 uM incubated for 60 mins by liquid scintillation counting assay; format: functional, cell membranes; conditions: filed as partial agonist, dose 1-10 µM
Kappa-type opioid receptor (Homo sapiens), sequence (P41145 whole entry): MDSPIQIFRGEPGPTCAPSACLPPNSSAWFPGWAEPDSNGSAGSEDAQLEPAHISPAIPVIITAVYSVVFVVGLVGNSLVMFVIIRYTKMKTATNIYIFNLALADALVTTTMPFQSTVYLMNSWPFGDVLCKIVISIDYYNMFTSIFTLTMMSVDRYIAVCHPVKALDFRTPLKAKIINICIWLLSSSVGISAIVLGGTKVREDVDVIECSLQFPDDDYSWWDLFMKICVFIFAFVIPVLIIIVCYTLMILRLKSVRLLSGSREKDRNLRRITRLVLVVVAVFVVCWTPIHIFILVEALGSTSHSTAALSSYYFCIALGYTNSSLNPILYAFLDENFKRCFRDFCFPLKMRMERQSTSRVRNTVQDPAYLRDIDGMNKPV

[23] = system: Mus musculus; assay: Antinociceptive activity in male C57BL/6J mouse at 10 mg/kg, ip measured after 10 min by 55 degreeC warm-water tail-withdrawal assay; format: functional, organism-based
[24] = Toxicity in male C57BL/6J mouse assessed as lethality up to 30 mg/kg, ip measured after 10 min; format: organism-based; conditions: in vivo
[25] = target: Delta-type opioid receptor (Mus musculus) (UniProt P32300); assay: Agonist activity at mouse DOR extracted from CHO cell membrane assessed as stimulation of [35S]GTPgammaS binding at 1 to 10 uM incubated for 60 mins by liquid scintillation counting assay; format: functional, cell membranes; conditions: filed as agonist, dose 1-10 µM
[26] = Toxicity in C57BL/6J mouse assessed as increase in ambulation at 30 mg/kg, ip measured up to 120 min; format: organism-based; conditions: in vivo, 2 h
[27] = Toxicity in C57BL/6J mouse assessed as effect on locomotor activity at 30 mg/kg, ip measured up to 120 min; format: organism-based; conditions: in vivo, 2 h
[28] = system: Mus musculus; assay: Antinociceptive activity in male C57BL/6J mouse assessed as peripheral restriction at 30 mg/kg, ip pre-treated with naloxone methiodide at 30 nmol, ICV for 30 min by 55 degreeC warm-water tail-withdrawal assay; format: functional
[29] = Toxicity in C57BL/6J mouse assessed as respiratory depression at 30 mg/kg, ip measured after 20 mins; format: organism-based; conditions: in vivo
[30] = system: Mus musculus; assay: Antinociceptive activity in male C57BL/6J mouse at 30 mg/kg, po by 55 degreeC warm-water tail-withdrawal assay; format: functional, organism-based; conditions: time <= 60.0 min
[31] = system: Mus musculus; assay: Antinociceptive activity in male C57BL/6J mouse assessed as peripheral restriction at 30 mg/kg, ip pre-treated with naloxone methiodide at 30 mg/kg, SC for 30 min by 55 degreeC warm-water tail-withdrawal assay; format: functional
[32] = system: Mus musculus; assay: Antinociceptive activity in male C57BL/6J mouse assessed as peripheral restriction at 30 mg/kg, ip by 55 degreeC warm-water tail-withdrawal assay; format: functional

## CC(C)[C@H]1CN=C2C=C3N(CCN4CCOCC4)[C@@H](Cc4ccc(O)cc4)CN3[C@@H](Cc3ccc(O)cc3)CN21
[1]
  Ki: 41 nM
[2]
  Ki: 11 nM
[3]
  Ki: 51 nM

## CC(C)C[C@H]1CN2C(=CC3=NC[C@H](CC(C)C)N3C[C@@H]2Cc2ccc(O)cc2)N1CCN1CCOCC1
[1]
  Ki: 15 nM
[2]
  Ki: 16 nM
[3]
  Ki: 157 nM

## CN1CC[C@]23c4c5ccc(O)c4O[C@H]2[C@@H](O)C=C[C@H]3[C@H]1C5 [MORPHINE]
[4]
  ED50: 0.9 mg/kg
[5]
  Ratio ED50: 3.75
[6]
  ED50: 3.37 mg/kg

## CC(C)C[C@H]1CN=C2C=C3N4CCC[C@H]4CN3[C@@H](Cc3ccc(O)cc3)CN21
[1]
  Ki: 40 nM
[2]
  Ki: 10 nM
[3]
  Ki: 169 nM

## CC(C)C[C@H]1CN=C2C=C3N(CCN4CCOCC4)[C@@H](Cc4ccc(O)cc4)CN3[C@@H](Cc3ccc(O)cc3)CN21
[1]
  Ki: 20 nM
[2]
  Ki: 42 nM
[3]
  Ki: 108 nM

## CC(C)C[C@H]1CN2C(=CC3=NC[C@H](CCN(C)C)N3C[C@@H]2Cc2ccc(O)cc2)N1CCc1ccccc1
[4]
  ED50: 0.2 mg/kg
[5]
  Ratio ED50: 10.73
[7]
  Activity: Non-toxic
[8]
  Activity: 96.3%
[9]
  Activity: inactive
[10]
  Activity: Active; Comparable To Morphine And U50,488
[11]
  Activity: inactive
[1]
  Ki: 24 nM
[12]
  Activity: Non-toxic
[13]
  Activity: Time-dependent-effect
[14]
  ED50: 2.19 mg/kg
[15]
  Activity: 1.2%
[2]
  Ki: 5 nM
[16]
  Activity: inactive
[17]
  Activity: 42%
[18]
  Activity: Not active; No Significant Activity
[19]
  Activity: Non-toxic
[20]
  Activity: Active; Weak Partial Agonism Observed
[3]
  Ki: 212 nM

## CN1CCN(CCN2C(=N)N([C@@H](CCCNC(=N)N)CN3C(=N)NC[C@@H]3Cc3ccc(O)cc3)C[C@@H]2Cc2ccc(O)cc2)CC1
[4]
  ED50: 4.97 mg/kg
[5]
  Ratio ED50: 0.78
[7]
  Activity: Non-toxic
[8]
  Activity: 89.7%
[9]
  Activity: inactive
[10]
  Activity: Active; Comparable To Morphine And U50,491
[11]
  Activity: inactive
[21]
  Activity: Active
[1]
  Ki: 87 nM
[22]
  Activity: Active
[12]
  Activity: Non-toxic
[13]
  Activity: Time-dependent-effect
[14]
  ED50: 3.9 mg/kg
[15]
  Activity: 2.5%
[2]
  Ki: 40 nM
[16]
  Activity: inactive
[17]
  Activity: 10.1%
[19]
  Activity: Non-toxic
[20]
  Activity: Active; Weak Partial Agonism Observed
[3]
  Ki: 197 nM

## CC(C)C[C@H]1CN2C(=CC3=NC[C@@H](C(C)C)N3C[C@H]2Cc2ccc(O)cc2)N1CCc1ccccc1
[1]
  Ki: 43 nM
[2]
  Ki: 1 nM

## CC(C)C[C@H]1CN([C@@H](Cc2ccc(O)cc2)CN2C(=N)NC[C@@H]2CCCNC(=N)N)C(=N)N1CCNS(=O)(=O)c1ccc(C(C)(C)C)cc1
[1]
  Ki: 48 nM
[2]
  Ki: 1 nM
[3]
  Ki: 120 nM

## CC(C)(C)c1ccc(S(=O)(=O)NCCN2C(=N)N([C@@H](Cc3ccc(O)cc3)CN3C(=N)NC[C@@H]3CCCNC(=N)N)C[C@@H]2CCCNC(=N)N)cc1
[1]
  Ki: 49 nM
[2]
  Ki: 84 nM
[3]
  Ki: 458 nM

## CC(C)[C@H]1CN=C2C=C3N(CCc4ccccc4)[C@@H](CN(C)C)CN3[C@@H](Cc3ccc(O)cc3)CN21
[1]
  Ki: 37 nM
[2]
  Ki: 4 nM
[3]
  Ki: 26 nM

## CC(C)(C)c1ccc(S(=O)(=O)NCCN2C(=N)N([C@@H](CCCNC(=N)N)CN3C(=N)NC[C@@H]3CCCNC(=N)N)C[C@@H]2CCCNC(=N)N)cc1
[1]
  Ki: 93 nM
[2]
  Ki: 7 nM
[3]
  Ki: 340 nM

## CC(C)[C@H]1CN=C2C=C3N4C[C@H](O)C[C@H]4CN3[C@@H](Cc3ccc(O)cc3)CN21
[1]
  Ki: 16 nM
[2]
  Ki: 34 nM
[3]
  Ki: 254 nM

## CC(C)[C@H]1CN=C2C=C3N(CCc4ccccc4)[C@@H](CCN(C)C)CN3[C@@H](Cc3ccc(O)cc3)CN21
[1]
  Ki: 20 nM
[2]
  Ki: 8 nM
[3]
  Ki: 34 nM

## CC(C)C[C@H]1CN2C(=CC3=NC[C@H](CN(C)C)N3C[C@@H]2Cc2ccc(O)cc2)N1CCc1ccccc1
[9]
  Activity: inactive
[23]
  Activity: Active; Minimal Antinociception Observed
[10]
  Activity: Active; Comparable To Morphine And U50,490
[11]
  Activity: inactive
[1]
  Ki: 47 nM
[22]
  Activity: Active
[2]
  Ki: 5 nM
[24]
  Activity: Toxic
[16]
  Activity: inactive
[18]
  Activity: Not active; No Significant Activity
[25]
  Activity: Active
[3]
  Ki: 100 nM

## CC(C)[C@H]1CN=C2C=C3N(CCc4ccccc4)CC[C@H](N(C)C)CN3[C@@H](Cc3ccc(O)cc3)CN21
[4]
  ED50: 0.67 mg/kg
[26]
  Activity: Non-toxic
[5]
  Ratio ED50: 20.95
[27]
  Activity: Non-toxic
[28]
  Activity: 59.1%
[9]
  Activity: inactive
[10]
  Activity: Active; Comparable To Morphine And U50,489
[11]
  Activity: inactive
[29]
  Activity: Non-toxic
[30]
  Activity: Time-dependent-effect
[1]
  Ki: 25 nM
[22]
  Activity: Active
[31]
  Activity: 3.5%
[14]
  ED50: 14 mg/kg
[2]
  Ki: 20 nM
[16]
  Activity: inactive
[18]
  Activity: Not active; No Significant Activity
[32]
  Activity: 87.9%
[20]
  Activity: Active; Weak Partial Agonism Observed
[3]
  Ki: 430 nM
